Assay results as given in patent US20080069901A1, “Therapeutic Agent for Metastatic Cancer and Cancer Metastasis Inhibitor” (TMRC Co. , Ltd., priority 2004, published 2008).

Experiments:
[1] = test system: Human multiple myeloma U266 cells; experiment: Bone metastasis model of human multiple myeloma U266 in NOG mice, serum hIgE level; assay type: in vivo, NOD/SCID/γc^null (NOG) mice
Method: The therapeutic and inhibitory effects of combination use with a bisphosphonate against metastasis in an animal model of metastasis to bone were evaluated in the following manner. Human multiple myeloma U266 cells in an amount of 2×10^6 in 0.2 ml were transplanted to NOD/SCID/γc^null (NOG) mice through their tail vein (10 mice per group). […] 21 days after the transplantation, Aredia containing pamidronate, one of bisphosphonates, as an active ingredient was orally administered at a dose of 1 mg per kg per day for consecutive 8 days (Aredia group). […] 29 days after the tumor transplantation, the human IgE (hIgE) level in the serum was measured, and the therapeutic effect against metastasis to bone was determined (refer to Y. Miyakawa et al.: Establishment of a new model of human multiple myeloma using NOD/SCID/γc^null (NOG) mice. “Biochemical and Biophysical Research Communication”: 2004, 313: 258-262).

[2] = test system: Human large cell lung carcinoma LC-1 cells; experiment: Tumor growth delay in nude mice with human large cell lung carcinoma LC-1; assay type: in vivo, BALB/cA-nu/nu mice; settings: for Tumor Growth Delay Percentage: total 20 mg per kg
Method: As an index of the effect, the tumor growth delay percentage (%) was determined by calculation according to the following equation: Tumor Growth Delay Percentage(%)=(A−B)/B×100 (1)
wherein “A” represents the number of days required for the tumor to increase in its volume as much as 8 times in each cisplatin-administered group; and “B” represents the number of days required for the tumor to increase in its volume as much as 8 times in the control group. In addition, blood urea nitrogen (BUN) was measured as an index of nephrotoxicity.

Melanoma B16 cells = experiment: Animal model of metastasis to bone, Melanoma B16 cells transplanted to the left ventricle; assay type: in vivo, C57BL/6 mice; settings: oral 1 mg per kg per day
Method: The therapeutic effect and inhibitory effect against metastasis in an animal model of metastasis to bone were evaluated in the following manner. Initially, a test animal was anaesthetized with thiamylal, the precordia was disinfected with iodine and 70% ethanol and was incised to 1 cm along with the midline to expose the ribs. The second interspace of the left sternum was needled to a depth of 2 mm with a needle of a tuberculin syringe 30 G. After observing that fresh blood came up into the syringe, cultured tumor cells in an amount of 10^4 cells in 0.1 mL were injected over one minute or longer. At the time when the animal (mouse) was weakened or paralyzed, the mouse was killed with ether anesthesia, and evaluation was conducted (refer to F. Arguello et al.: A Murine Model of Experimental Metastasis to Bone and Bone Marrow. “Cancer Research”: 1988, 48: 6876-6881).
Melanoma B16 cells (10^4/0.1 mL) were transplanted to the left ventricle of 8-week old female C57BL/6 mice (12 mice per group). […] At the time three weeks after the transplantation when the mice were weakened or paralyzed, the mice were killed under inhalation with ether, the target organs were fixed with 10% formalin, and evaluation of tumor metastasis was conducted.

[3] = test system: murine colorectal cancer Colon 26; experiment: Liver metastasis model of murine colorectal cancer Colon 26 (spleen transplantation), survival; assay type: in vivo, CDF1 mice
Description: When cancer cells are transplanted into the spleen of mice, metastatic cancer is selectively formed in the liver. Use of this model enables various therapeutic experiments in order to control metastasis to liver (refer to MORIKAWA, Kiyoshi, Nude Mouse Spleen Transplantation Method as Human Cancer Liver Metastasis Model, “Oncologia”: 1989, 22(2): p. 100-102, and L. Kopper et al.: Experimental Model for Liver Metastasis Formation Using Lewis Lung Tumor.: “Journal of Cancer Research Clinical Oncology”: 1982, 103: p31-38).
Specifically, a liver metastasis model of murine colorectal cancer Colon 26 was established using 6-week old CDF1 mice. The therapeutic and inhibitory activities were assayed using, as an index, the ratio (life prolongation rate; T/C percentage) of the survival time of a drug-administered group (10 mice per group) to the survival time of a non-drug-administered (control) group (10 mice per group). In the drug-administered group, cisplatin as a platinum complex was dissolved in physiological saline and was orally administered. In the control group, physiological saline alone was orally administered.

[4] = three weeks after transplantation, control 9/10

## N.N.[Cl][Pt][Cl] [Cisplatin, cisplatin]
[1]; 29 days after transplantation, oral 1 mg per kg per day each, cisplatin day 1-28, Aredia day 21-28, control 351.7 ng/mL
  hIgE Level in serum: 210.5 ng/mL
[1]; oral 1 mg per kg per day
  Effect on increase in hIgE level due to metastasis to bone (in words): inhibits the increase in hIgE level
[2]; intermittent intravenous administration, 6.67 mg per kg three times every 7 days
  Tumor Growth Delay Percentage: 265%
[2]; low-dose daily administration
  Growth of cancer (in words): inhibits growth of cancer
[2]; low-dose daily intravenous administration, 1.33 mg per kg for 5 consecutive days x 3 courses
  Tumor Growth Delay Percentage: >293%
Melanoma B16 cells
  Inhibition of metastasis to bone (in words): significantly inhibits metastasis to bone
Melanoma B16 cells; three weeks after transplantation, control 0/10
  Number of mice where metastasis was observed: Vertebral Column, Cervical Region: 0/10
Melanoma B16 cells; three weeks after transplantation, control 4/10
  Number of mice where metastasis was observed: Pectoral Region, Breast Bone: 2/10
Melanoma B16 cells; three weeks after transplantation, control 6/10
  Number of mice where metastasis was observed: Vertebral Column, Sacral Spine: 1/10
Melanoma B16 cells; three weeks after transplantation, control 7/10
  Number of mice where metastasis was observed: Pectoral Region, Blade Bone: 5/10
Melanoma B16 cells; three weeks after transplantation, control 8/10
  Number of mice where metastasis was observed: Vertebral Column, Lumbar Region: 4/10
Melanoma B16 cells; [4]
  Number of mice where metastasis was observed: Pectoral Region, Rib: 5/10
  Number of mice where metastasis was observed: Vertebral Column, Pectoral Region: 6/10
[3]; oral 1 mg per kg per day
  Life prolongation effect against liver metastasis (in words): remarkable life prolongation effect
[3]; oral 1 mg per kg per day in physiological saline, started one day after transplantation, control 16.0
  Median Survival Time: 31.0 days
[3]; survival time of drug-administered group to control group, oral 1 mg per kg per day
  T/C (life prolongation rate): 194%
